In one assay the target is T1, TGR5 (STC1 cell line) (Mus musculus, UniProt Q80SS6).
T1 sequence (Q80SS6 1-329): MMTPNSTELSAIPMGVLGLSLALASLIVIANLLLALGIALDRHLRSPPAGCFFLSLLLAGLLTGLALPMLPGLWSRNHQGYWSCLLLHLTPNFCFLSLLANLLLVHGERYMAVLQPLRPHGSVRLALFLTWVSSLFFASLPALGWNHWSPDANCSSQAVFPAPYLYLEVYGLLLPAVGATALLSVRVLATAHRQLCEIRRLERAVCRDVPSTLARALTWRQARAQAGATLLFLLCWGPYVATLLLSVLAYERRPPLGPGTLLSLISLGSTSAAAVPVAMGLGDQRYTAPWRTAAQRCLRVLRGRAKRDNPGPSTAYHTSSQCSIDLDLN
Nature of the assay: STC1 cAMP Agonist EC50 Determination.

Assay [1] has as its target T2, TGR5 (NCI-H716 cell line) (Homo sapiens, UniProt Q8TDU6).
T2 sequence (Q8TDU6 1-330): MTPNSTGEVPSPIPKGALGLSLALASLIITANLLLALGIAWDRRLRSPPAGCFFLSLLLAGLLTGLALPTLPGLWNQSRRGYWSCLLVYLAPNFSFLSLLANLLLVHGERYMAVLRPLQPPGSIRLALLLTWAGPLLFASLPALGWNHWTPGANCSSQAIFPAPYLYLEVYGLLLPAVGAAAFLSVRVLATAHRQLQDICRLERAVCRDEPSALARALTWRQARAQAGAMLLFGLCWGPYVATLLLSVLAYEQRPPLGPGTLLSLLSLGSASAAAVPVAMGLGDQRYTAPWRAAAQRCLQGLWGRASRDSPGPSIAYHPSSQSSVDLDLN
Nature of the assay: NCI-H716 cAMP Agonist EC50 Determination.
Protocol: Cells were cultured in suspension using RPM containing: 10% HI FBS, and 1× Penn/Strep and were cryostored (1E7 cells/vial in 5% DMSO).
A Normalized signal (NS) is generated by the Envision for each well ((Read 1/Read 2)×10,000).
The data from the Envision were imported to an Excel worksheet. nM cAMP is calculated for each well from the cAMP standard curves located on each plate by first calculating the slope and deriving the intercept (b).
[formula] [formula] [formula] EC50 values were determined from a 4-point fit (Hill equation) of a single 11-point compound dosing.

Structures are written as SMILES. Counter-ions that a name gives are not always drawn.

Regarding `COc1cc(C2CCCc3nc(SCc4c(F)cc(OCCOCCOCCN(C)C)cc4F)n(-c4ccc(F)cc4)c32)ccc1Cl` (centres unmarked) [Example 33, 2-(2-(2-(4-((7-(4-chloro-3-methoxyphenyl)-1-(4-fluorophenyl)-4,5,6,7-tetrahydro-1H-benzo[d]imidazol-2-ylthio)methyl)-3,5-difluorophenoxy)ethoxy)ethoxy)-N,N-dimethylethanamine hydrochloride], the EC50 (usually the concentration at which the effect is half-maximal) was 4.9 µM on TGR5 (STC1 cell line) and > 50 µM in assay [1].
Regarding `COc1cc(C2CCCc3nc(SCc4c(F)cc(OCCOCCN(C)C)cc4F)n(-c4ccc(F)cc4)c32)ccc1Cl` (centres unmarked) [Example 34, (2-[2-[4-([[7-(4-chloro-3-methoxyphenyl)-1-(4-fluorophenyl)-4,5,6,7-tetrahydro-1H-1,3-benzodiazol-2-yl]sulfanyl]methyl)-3,5-difluorophenoxy]ethoxy]ethyl)dimethylamine hydrochloride], the EC50 is 3.9 µM at TGR5 (STC1 cell line) and > 50 µM in assay [1].
For `COc1cc(C2CCCc3nc(SCc4c(F)ccc(OCCOCCN(C)C)c4F)n(-c4ccc(F)cc4)c32)ccc1Cl` (centres unmarked) [Example 35, (2-[2-[3-([[7-(4-chloro-3-methoxyphenyl)-1-(4-fluorophenyl)-4,5,6,7-tetrahydro-1H-1,3-benzodiazol-2-yl]sulfanyl]methyl)-2,4-difluorophenoxy]ethoxy]ethyl)dimethylamine hydrochloride] the same measures were 3.15 µM and 9.3 µM.
With `COc1cc(C2CCCc3nc(SCc4c(F)cc(C#N)cc4F)n(-c4ccc(F)cc4)c32)ccc1Cl` (centres unmarked) [Example 36, 4-([[7-(4-chloro-3-methoxyphenyl)-1-(4-fluorophenyl)-4,5,6,7-tetrahydro-1H-1,3-benzodiazol-2-yl]sulfanyl]methyl)-3,5-difluorobenzonitrile], the EC50 on TGR5 (STC1 cell line) was 1.34 µM; in assay [1], > 50 µM.
For `COc1cc(C2CCCc3nc(SCc4c(F)cc(/C=C5\SC(=O)NC5=O)cc4F)n(-c4ccc(F)cc4)c32)ccc1Cl` (centres unmarked) [Example 37, (5Z)-5-[[4-([[7-(4-chloro-3-methoxyphenyl)-1-(4-fluorophenyl)-4,5,6,7-tetrahydro-1H-1,3-benzodiazol-2-yl]sulfanyl]methyl)-3,5-difluorophenyl]methylidene]-1,3-thiazolidine-2,4-dione], the EC50 on TGR5 (STC1 cell line) was 14.9 µM; in assay [1], > 50 µM.
For `COc1cc(C2CCCc3nc(SCc4c(F)cc(CC5SC(=O)NC5=O)cc4F)n(-c4ccc(F)cc4)c32)ccc1Cl` (centres unmarked) [Example 38, 5-(4-((7-(4-chloro-3-methoxyphenyl)-1-(4-fluorophenyl)-4,5,6,7-tetrahydro-1H-benzo[d]imidazol-2-ylthio)methyl)-3,5-difluorobenzyl)thiazolidine-2,4-dione trifluoroacetic acid], in that order: 1.25 µM and > 50 µM.
With `C/N=C(\N)NCCCc1cc(F)c(CSc2nc3c(n2-c2ccc(F)cc2)C(c2ccc(Cl)c(OC)c2)CCC3)c(F)c1` (centres unmarked) [Example 39a, (E)-1-[3-[4-([[7-(4-chloro-3-methoxyphenyl)-1-(4-fluorophenyl)-4,5,6,7-tetrahydro-1H-1,3-benzodiazol-2-yl]sulfanyl]methyl)-3,5-difluorophenyl]propyl]-2-methylguanidine hydrochloride], the EC50 on TGR5 (STC1 cell line) was 0.36 µM; in assay [1], > 50 µM.
For `COc1cc(C2CCCc3nc(SCc4c(F)cc(CCCN(C)C)cc4F)n(-c4ccc(F)cc4)c32)ccc1Cl` (centres unmarked) [Example 39b, 3-(4-((7-(4-chloro-3-methoxyphenyl)-1-(4-fluorophenyl)-4,5,6,7-tetrahydro-1H-benzo[d]imidazol-2-ylthio)methyl)-3,5-difluorophenyl)-N,N-dimethylpropan-1-amine trifluoroacetic acid] the same measures were 16.3 µM and > 50 µM.
With `CCOC(=O)CCc1cc(F)c(CSc2nc3c(n2-c2ccc(F)cc2)C(c2ccc(Cl)c(OC)c2)CCC3)c(F)c1` (centres unmarked) [Example 40, Ethyl 3-(4-((7-(4-chloro-3-methoxyphenyl)-1-(4-fluorophenyl)-4,5,6,7-tetrahydro-1H-benzo[d]imidazol-2-ylthio)methyl)-3,5-difluorophenyl)propanoate trifluoroacetic acid], the results for the EC50 (at TGR5 (STC1 cell line); in assay [1]) were 1.36 µM and > 50 µM, respectively.
On to `COc1cc(C2CCCc3nc(SCc4c(F)cc(CCCO)cc4F)n(-c4ccc(F)cc4)c32)ccc1Cl` (centres unmarked) [Example 41, 3-(4-((7-(4-chloro-3-methoxyphenyl)-1-(4-fluorophenyl)-4,5,6,7-tetrahydro-1H-benzo[d]imidazol-2-ylthio)methyl)-3,5-difluorophenyl)propan-1-ol trifluoroacetic acid], for which the values for the EC50 (at TGR5 (STC1 cell line); in assay [1]) were 0.89 µM and > 50 µM, respectively.
Turning to `COc1cc(C2CCCc3nc(SCc4c(F)cc(CCCNC(=N)N)cc4F)n(-c4ccc(F)cc4)c32)ccc1Cl` (centres unmarked) [Example 42, 1-(3-(4-((7-(4-chloro-3-methoxyphenyl)-1-(4-fluorophenyl)-4,5,6,7-tetrahydro-1H-benzo[d]imidazol-2-ylthio)methyl)-3,5-difluorophenyl)propyl)guanidine trifluoroacetic acid], the EC50 on TGR5 (STC1 cell line) is 0.53 µM; in assay [1] it was > 50 µM.
`COc1cc(C2CCCc3nc(SCc4c(F)cc(CCCN/C(N)=N/C#N)cc4F)n(-c4ccc(F)cc4)c32)ccc1Cl` (centres unmarked) [Example 43, (E)-1-(3-(4-((7-(4-chloro-3-methoxyphenyl)-1-(4-fluorophenyl)-4,5,6,7-tetrahydro-1H-benzo[d]imidazol-2-ylthio)methyl)-3,5-difluorophenyl)propyl)-2-cyanoguanidine hydrochloride]: the values for the 50% effective concentration (EC50) (at TGR5 (STC1 cell line); in assay [1]) were 0.67 µM and > 50 µM, respectively.
For `COc1cc(C2CCCc3nc(SCc4c(F)cc(CCC(=O)O)cc4F)n(-c4ccc(F)cc4)c32)ccc1Cl` (centres unmarked) [Example 44, 3-(4-((7-(4-chloro-3-methoxyphenyl)-1-(4-fluorophenyl)-4,5,6,7-tetrahydro-1H-benzo[d]imidazol-2-ylthio)methyl)-3,5-difluorophenyl)propanoic acid trifluoroacetic acid] the same measures were 1.39 µM and > 50 µM.
For `COc1cc(C2CCCc3nc(SCc4c(F)cc(CCC(N)=O)cc4F)n(-c4ccc(F)cc4)c32)ccc1Cl` (centres unmarked) [Example 45, 3-(4-((7-(4-chloro-3-methoxyphenyl)-1-(4-fluorophenyl)-4,5,6,7-tetrahydro-1H-benzo[d]imidazol-2-ylthio)methyl)-3,5-difluorophenyl)propanamide trifluoroacetic acid], in that order: 0.35 µM and > 50 µM.
On to `COc1cc(C2CCCc3nc(SCc4c(F)cc(CCC#N)cc4F)n(-c4ccc(F)cc4)c32)ccc1Cl` (centres unmarked) [Example 46, 3-(4-((7-(4-chloro-3-methoxyphenyl)-1-(4-fluorophenyl)-4,5,6,7-tetrahydro-1H-benzo[d]imidazol-2-ylthio)methyl)-3,5-difluorophenyl)propanenitrile trifluoroacetic acid], for which the figures for the EC50 (at TGR5 (STC1 cell line); in assay [1]) were 0.14 µM and > 50 µM, respectively.
For `COc1cc(C2CCCc3nc(SCc4c(F)cc(CC/C=N/NC(=N)N)cc4F)n(-c4ccc(F)cc4)c32)ccc1Cl` (centres unmarked) [Example 47, (E)-2-(3-(4-((7-(4-chloro-3-methoxyphenyl)-1-(4-fluorophenyl)-4,5,6,7-tetrahydro-1H-benzo[d]imidazol-2-ylthio)methyl)-3,5-difluorophenyl)propylidene) hydrazinecarboximidamide hydrochloride] the same measures were 0.37 µM and 47.3 µM.
As for `C/N=C(\N)N/N=C/CCc1cc(F)c(CSc2nc3c(n2-c2ccc(F)cc2)C(c2ccc(Cl)c(OC)c2)CCC3)c(F)c1` (centres unmarked) [Example 48, (1E,2E)-2-(3-(4-((7-(4-chloro-3-methoxyphenyl)-1-(4-fluorophenyl)-4,5,6,7-tetrahydro-1H-benzo[d]imidazol-2-ylthio)methyl)-3,5-difluorophenyl)propylidene)-N′-methylhydrazinecarboximidamide hydrochloride], the EC50 on TGR5 (STC1 cell line) was 0.35 µM; in assay [1], > 50 µM.
As to `COc1cc(C2CCCc3nc(SCc4c(F)cc(CCc5nnn[nH]5)cc4F)n(-c4ccc(F)cc4)c32)ccc1Cl` (centres unmarked) [Example 49, 2-(4-(2-(1H-tetrazol-5-yl)ethyl)-2,6-difluorobenzylthio)-7-(4-chloro-3-methoxyphenyl)-1-(4-fluorophenyl)-4,5,6,7-tetrahydro-1H-benzo[d]imidazole trifluoroacetic acid], the EC50 at TGR5 (STC1 cell line) was 0.94 µM; in assay [1], > 50 µM.
Regarding `COc1cc(C2CCCc3nc(SCc4c(F)cncc4F)n(-c4ccc(F)cc4)c32)ccc1Cl` (centres unmarked) [Example 50, 7-(4-chloro-3-methoxyphenyl)-2-((3,5-difluoropyridin-4-yl)methylthio)-1-(4-fluorophenyl)-4,5,6,7-tetrahydro-1H-benzo[d]imidazole trifluoroacetic acid], the EC50 was determined as 0.28 µM at TGR5 (STC1 cell line) and 34.7 µM in assay [1].
